Patent US6677316B2, “Adenosine derivatives and methods of administration” (SmithKline Beecham Corporation, priority 1998, dated 2004)

What was measured:
[1] = biological target: T1, human adenosine A1 receptor (Homo sapiens, UniProt P30542); test: Reporter gene assay (CRE/SPAP) in CHO cells, agonist potency relative to NECA, adenosine A1 receptor; type: cell-based; parameters: key: equipotent concentration ratio, NECA = 1; conditions: ECR = equipotent concentration ratio relative to NECA = 1, inhibition of forskolin-stimulated SPAP production
T1 construct: expressed in transfected cells; host or cells: Chinese hamster ovary (CHO) cells with CRE/SPAP/HYG reporter elements
T1 sequence (P30542 1-326): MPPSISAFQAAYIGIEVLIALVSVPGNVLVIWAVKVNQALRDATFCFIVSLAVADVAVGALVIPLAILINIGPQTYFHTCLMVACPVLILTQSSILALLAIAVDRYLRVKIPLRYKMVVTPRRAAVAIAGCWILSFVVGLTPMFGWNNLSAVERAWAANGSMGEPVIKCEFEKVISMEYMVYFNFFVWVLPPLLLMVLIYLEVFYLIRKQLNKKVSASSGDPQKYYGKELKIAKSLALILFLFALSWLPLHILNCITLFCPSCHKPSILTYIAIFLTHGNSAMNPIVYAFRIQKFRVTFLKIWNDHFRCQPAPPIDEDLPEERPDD
Method: (§1) Reporter Gene Experiments
(§2) Agonist activity was measured in Chinese hamster ovary (CHO) cells containing the CRE/SPAP/HYG (CRE=cyclic AMP response element; HYG=hygromycin resistance; SPAP=secreted placental alkaline phosphatase) reporter gene elements, which upon stimulation of cAMP levels produced SPAP. A cell line was used, which was stably transfected with either the human adenosine A1 receptor or the human adenosine A3 receptor in addition to the above elements. Cells were plated out in 96-well plates in culture medium and incubated at 37° C. for 1 hour. For measurement of potency, agonists were added to the appropriate wells at a concentration range of approximately 10^−10- 10^−5M. 15Min later, cAMP levels were stimulated by addition of a maximal concentration of forskolin. All cells were then incubated for a further 5 hours at 37° C., and cooled to room temperature, after which a substrate for the phosphatase (para-nitrophenol phosphate, pNPP), which is converted by SPAP to a coloured reagent) was then added and the 96-well -plates were read in a plate reader. From these readings, the concentration-dependence of the inhibition by the agonist for forskolin-stimulated SPAP production can be calculated. One of the agonists tested on each 96-well plate was the standard non-selective agonist, N-ethylcarboxamidoadenosine (NECA), and the potency of all test agonists is expressed relative to that of the NECA standard.
(§3) (ECR=equipotent concentration ratio relative to NECA=1)

[2] = biological target: T2, human adenosine A3 receptor (Homo sapiens, UniProt P0DMS8); test: Reporter gene assay (CRE/SPAP) in CHO cells, agonist potency relative to NECA, adenosine A3 receptor; type: cell-based; parameters: key: equipotent concentration ratio, NECA = 1; conditions: ECR = equipotent concentration ratio relative to NECA = 1, inhibition of forskolin-stimulated SPAP production
T2 construct: expressed in transfected cells; host or cells: Chinese hamster ovary (CHO) cells with CRE/SPAP/HYG reporter elements
T2 sequence (P0DMS8 1-318): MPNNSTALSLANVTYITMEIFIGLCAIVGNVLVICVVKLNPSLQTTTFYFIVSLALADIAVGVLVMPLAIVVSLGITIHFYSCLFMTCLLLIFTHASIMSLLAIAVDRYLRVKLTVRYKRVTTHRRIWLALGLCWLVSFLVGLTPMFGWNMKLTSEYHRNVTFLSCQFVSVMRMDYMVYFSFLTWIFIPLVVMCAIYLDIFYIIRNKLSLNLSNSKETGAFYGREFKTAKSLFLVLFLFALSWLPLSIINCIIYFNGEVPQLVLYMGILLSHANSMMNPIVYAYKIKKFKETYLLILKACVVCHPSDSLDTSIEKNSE
Method: as §1, §2, §3

CC(C)(C)c1cc([C@H]2O[C@@H](n3cnc4c(NC5CCOCC5)ncnc43)[C@H](O)[C@@H]2O)on1 [Example 28, (2S,3S,4R,5R)-2-(3-tert-Butyl-isoxazol-5-yl)-5-[6-(tetrahydro-pyran-4-ylamino)-purin-9-yl]-tetrahydro-furan-3,4-diol]
Adenosine A1 receptor ECR* [1]: 0.42
Adenosine A3 receptor ECR* [2]: 44.7

O[C@@H]1[C@H](O)[C@@H](c2nc(C3CC3)no2)O[C@H]1n1cnc2c(N[C@H]3CCC[C@@H]3O)ncnc21 [Example 19, (2S,3S,4R,5R)-2-(3-Cyclopropyl-[1,2,4]oxadiazol-5-yl)-5-[6-(2S-hydroxy-cyclopent-(S)-ylamino)-purin-9-yl]-tetrahydro-furan-3,4-diol]
Adenosine A1 receptor ECR* [1]: 5.15
Adenosine A3 receptor ECR* [2]: 172

CC(C)(C)c1nnc([C@H]2O[C@@H](n3cnc4c(NC5CCOCC5)ncnc43)[C@H](O)[C@@H]2O)[nH]1 [Example 139, (2R,3S,4R,5R)-2-[5-(tert-butyl)-4H-1,2,4-triazol-3-yl]-5-[6-(tetrahydro-2H-pyran-4-ylamino)-9H-purin-9-yl]tetrahydrofuran-3,4-diol]
Adenosine A1 receptor ECR* [1]: 10.64
Adenosine A3 receptor ECR* [2]: 228

CCOC(=O)N1CCC(Nc2ncnc3c2ncn3[C@@H]2O[C@H](c3nnc(C(C)(C)C)o3)[C@@H](O)[C@H]2O)CC1 [Example 4, 4-{9-[5S-(5-tert-Butyl-[1,3,4]oxadiazol-2-yl)-3R,4S-dihydroxy-tetrahydro-furan-2R-yl]-9H-purin-6-ylamino}-piperidine-1-carboxylic acid ethyl ester]
Adenosine A1 receptor ECR* [1]: 5.65
Adenosine A3 receptor ECR* [2]: 152

CCc1nnc([C@H]2O[C@@H](n3cnc4c(NC(C)C)ncnc43)[C@H](O)[C@@H]2O)o1 [Example 131, (2S,3S,4R,5R)-2-(5-ethyl-1,3,4-oxadiazol-2-yl)-5-[6-(isopropylamino)-9H-purin-9-yl]tetrahydrofuran-3,4-diol]
Adenosine A1 receptor ECR* [1]: 0.15
Adenosine A3 receptor ECR* [2]: 199.01

CC(C)(C)c1cc([C@H]2O[C@@H](n3cnc4c(NC5CCS(=O)(=O)CC5)ncnc43)[C@H](O)[C@@H]2O)on1 [Example 119, (2S,3S,4 R,5R)-2-[3-(tert-butyl)isoxazol-5-yl]-5-{6-[(1,1-dioxidotetrahydro-2H-thiopyran-4-yl)amino]-9H-purin-9-yl}tetrahydrofuran-3,4-diol]
Adenosine A1 receptor ECR* [1]: 2.83
Adenosine A3 receptor ECR* [2]: 154

O[C@@H]1[C@H](O)[C@@H](c2nnc(C3CC3)o2)O[C@H]1n1cnc2c(NC3CCOCC3)ncnc21 [Example 108, (2S,3S,4R,5R)-2-(5-cyclopropyl-1,3,4-oxadiazol-2-yl)-5-[6-(tetrahydro-2H-pyran-4-ylamino)-9H-purin-9-yl]tetrahydrofuran-3,4-diol]
Adenosine A1 receptor ECR* [1]: 1.52
Adenosine A3 receptor ECR* [2]: 254

COCc1noc([C@H]2O[C@@H](n3cnc4c(NC5CCCC5)ncnc43)[C@H](O)[C@@H]2O)n1 [Example 129, (2R,3R,4S,5S)-2-[6-(cyclopentylamino)-9H-purin-9-yl]-5-[3-(methoxymethyl)-1,2,4-oxadiazol-5-yl]tetrahydrofuran-3,4-diol]
Adenosine A1 receptor ECR* [1]: 15.5
Adenosine A3 receptor ECR* [2]: >199

O[C@@H]1[C@H](O)[C@@H](c2nc(C3CC3)no2)O[C@H]1n1cnc2c(NC3CCOCC3)ncnc21 [Example 22, (2S,3S,4 R,5R)-2-(3-Cyclopropyl-[1,2,4]oxadiazol-5-yl)-5-[6-(tetrahydro-pyran4-ylamino)-purin-9-yl]-tetrahydro-furan-3,4-diol]
Adenosine A1 receptor ECR* [1]: 8.75
Adenosine A3 receptor ECR* [2]: 423

CC(C)c1nnc([C@H]2O[C@@H](n3cnc4c(Nc5ccc(F)cc5Cl)ncnc43)[C@H](O)[C@@H]2O)[nH]1 [Example 68, (2R,3R,4S,5R)-2-[6-(2-chloro-4-fluoroanilino)-9H-purin-9-yl]-5-(5-isopropyl-4H-1,2,4-triazol-3-yl)tetrahydrofuran-3,4-diol]
Adenosine A1 receptor ECR* [1]: 4.09
Adenosine A3 receptor ECR* [2]: 417.37

O[C@@H]1[C@H](O)[C@@H](c2nnc(C(F)(F)F)o2)O[C@H]1n1cnc2c(NC3CCCC3)ncnc21 [Example 178, (2R,3R,4S,5S)-2-[6-(cyclo-pentylamino)-9H-purin-9-yl]-5-[5-(trifluoromethyl)-1,3,4-oxadiazol-2-yl]-tetrahydrofuran-3,4-diol]
Adenosine A1 receptor ECR* [1]: 7.42
Adenosine A3 receptor ECR* [2]: >471

CNS(=O)(=O)CCNc1ncnc2c1ncn2[C@@H]1O[C@H](c2ncc(C)o2)[C@@H](O)[C@H]1O [Example 127, 2-({9-[(2R,3R,4S,5S)-3,4-dihydroxy-5-(5-methyl-1,3-oxazol-2-yl)tetrahydrofuran-2-yl]-9H-purin-6-yl}amino)-N-methylethanesulfonamide]
Adenosine A1 receptor ECR* [1]: 0.21
Adenosine A3 receptor ECR* [2]: 21.62

Cc1nnc([C@H]2O[C@@H](n3cnc4c(N[C@H]5CCC[C@@H]5O)ncnc43)[C@H](O)[C@@H]2O)o1 [Example 132, (2R,3R,4S,5S)-2-(6-{[(1 S,2S)-2-hydroxycyclopentyl]amino}-9H-purin-9-yl)-5-(5-methyl-1,3,4-oxadiazol-2-yl)tetrahydrofuran-3,4-diol]
Adenosine A1 receptor ECR* [1]: 0.53
Adenosine A3 receptor ECR* [2]: >22.4

CC(C)(C)c1noc([C@H]2O[C@@H](n3cnc4c(NCC5CC5)ncnc43)[C@H](O)[C@@H]2O)n1 [Example 44, (2S,3S,4 R,5R)-2-[3-(tert-butyl)-1,2,4-oxadiazol-5-yl]-5-{6-[(cyclopropylmethyl)amino]-9H-purin-9-yl}tetrahydrofuran-3,4-diol]
Adenosine A1 receptor ECR* [1]: 7.68
Adenosine A3 receptor ECR* [2]: 165.54

CCOC(=O)N1CCC(Nc2ncnc3c2ncn3[C@@H]2O[C@H](c3nnc(C(F)(F)F)o3)[C@@H](O)[C@H]2O)CC1 [Example 180, ethyl 4-[(9-{(2R,3R,4S,5S)-3,4-dihydroxy-5-[5-(trifluoromethyl)-1,3,4-oxadiazol-2-yl]-tetrahydrofuran-2-yl}-9H-purin-6-yl)amino]-piperidine-1-carboxylate]
Adenosine A1 receptor ECR* [1]: 18.1
Adenosine A3 receptor ECR* [2]: >471

CC(C)(C)c1noc([C@H]2O[C@@H](n3cnc4c(N[C@H]5CCC[C@@H]5O)ncnc43)[C@H](O)[C@@H]2O)n1 [Example 21, (2S,3S,4R,5R)-2-(3-tert-Butyl-[1,2,4]oxadiazol-5-yl)-5-[6-(2S-hydroxy-cyclopent-(S)-ylamino)-purin-9-yl]-tetrahydro-furan-3,4-diol]
Adenosine A1 receptor ECR* [1]: 23.26
Adenosine A3 receptor ECR* [2]: 321

CC(C)(C)c1nnc([C@H]2O[C@@H](n3cnc4c(Nc5ccc(F)cc5Cl)ncnc43)[C@H](O)[C@@H]2O)o1 [Example 116, (2S,3S,4R,5R)-2-[5-(tert-butyl)-1,3,4-oxadiazol-2-yl]-5-[6-(2-chloro-4-fluoroanilino)-9H-purin-9-yl]tetrahydrofuran-3,4-diol]
Adenosine A1 receptor ECR* [1]: 27.26
Adenosine A3 receptor ECR* [2]: 955

CC(C)c1noc([C@H]2O[C@@H](n3cnc4c(Nc5ccc(F)c(F)c5)ncnc43)[C@H](O)[C@@H]2O)n1 [Example 56, (2R,3R,4S,5S)-2-[6-(3,4-difluoroanilino)-9H-purin-9-yl]-5-(3-isopropyl-1,2,4-oxadiazol-5-yl)tetrahydrofuran-3,4-diol]
Adenosine A1 receptor ECR* [1]: 15.96
Adenosine A3 receptor ECR* [2]: 717.99

CC(C)(C)c1nnc([C@H]2O[C@@H](n3cnc4c(NC5CCOCC5)ncnc43)[C@H](O)[C@@H]2O)o1 [Example 3, (2S,3S,4R,5R)-2-(5-tert-Butyl-[1,3,4]oxadiazol-2-yl)-5-[6-(tetrahydro-pyran-4-ylamino)-purin-9-yl]-tetrahydro-furan-3,4-diol]
Adenosine A1 receptor ECR* [1]: 4.16
Adenosine A3 receptor ECR* [2]: 152

O[C@@H]1[C@H](O)[C@@H](c2nc(C3CC3)no2)O[C@H]1n1cnc2c(Nc3ccc(Cl)cc3F)ncnc21 [Example 62, (2R,3R,4S,5S)-2-[6-(4-chloro-2-fluoroanilino)-9H-purin-9-yl]-5-(3-cyclopropyl-1,2,4-oxadiazol-5-yl)tetrahydrofuran-3,4-diol]
Adenosine A1 receptor ECR* [1]: 29.47
Adenosine A3 receptor ECR* [2]: 327
